Here are results for 19 compounds from patent US20080234262A1 (Wyeth, priority 2007, published 2008).

Experiment [1] has as its target PI3K (Homo sapiens, UniProt P42336). Kind of experiment: Fluorescence polarization assay for PI3K.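 Note: PI3K kinase reaction on PIP2 with ATP, 30-60 min, product sensed by GST-GRP with red probe in fluorescence polarization (mP), controls without enzyme and at zero time.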 It is filed as biochemical. Particulars: PI3Kα; read-out: PI3Kα IC50. (Polarisation of emitted light reports the rotation of a fluorescent probe.)
The subject of experiment [2] is breast line MDA468. Kind of experiment: In vitro cell culture growth assay (MTS), MDA468. It is filed as cell-based, human. Particulars: MDA468 cells, three days after drug treatment. The gist of the method: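 Growth measured as percent of same-plate vehicle control by MTS metabolic dye conversion (A490). Breast MDA468 and prostate LNCap cells, plated a day ahead, were exposed to compounds for 3 days.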

For experiment [3], the system named is prostate line LNCap. Kind of experiment: In vitro cell culture growth assay (MTS), LNCap.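 Note: viable cell density read by absorbance at 490 nm, growth expressed as percent of vehicle-treated cells on the same plate.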 Particulars: LNCap cells, three days after drug treatment. Format: cell-based, human.

Chain of PI3K (P42336 whole entry): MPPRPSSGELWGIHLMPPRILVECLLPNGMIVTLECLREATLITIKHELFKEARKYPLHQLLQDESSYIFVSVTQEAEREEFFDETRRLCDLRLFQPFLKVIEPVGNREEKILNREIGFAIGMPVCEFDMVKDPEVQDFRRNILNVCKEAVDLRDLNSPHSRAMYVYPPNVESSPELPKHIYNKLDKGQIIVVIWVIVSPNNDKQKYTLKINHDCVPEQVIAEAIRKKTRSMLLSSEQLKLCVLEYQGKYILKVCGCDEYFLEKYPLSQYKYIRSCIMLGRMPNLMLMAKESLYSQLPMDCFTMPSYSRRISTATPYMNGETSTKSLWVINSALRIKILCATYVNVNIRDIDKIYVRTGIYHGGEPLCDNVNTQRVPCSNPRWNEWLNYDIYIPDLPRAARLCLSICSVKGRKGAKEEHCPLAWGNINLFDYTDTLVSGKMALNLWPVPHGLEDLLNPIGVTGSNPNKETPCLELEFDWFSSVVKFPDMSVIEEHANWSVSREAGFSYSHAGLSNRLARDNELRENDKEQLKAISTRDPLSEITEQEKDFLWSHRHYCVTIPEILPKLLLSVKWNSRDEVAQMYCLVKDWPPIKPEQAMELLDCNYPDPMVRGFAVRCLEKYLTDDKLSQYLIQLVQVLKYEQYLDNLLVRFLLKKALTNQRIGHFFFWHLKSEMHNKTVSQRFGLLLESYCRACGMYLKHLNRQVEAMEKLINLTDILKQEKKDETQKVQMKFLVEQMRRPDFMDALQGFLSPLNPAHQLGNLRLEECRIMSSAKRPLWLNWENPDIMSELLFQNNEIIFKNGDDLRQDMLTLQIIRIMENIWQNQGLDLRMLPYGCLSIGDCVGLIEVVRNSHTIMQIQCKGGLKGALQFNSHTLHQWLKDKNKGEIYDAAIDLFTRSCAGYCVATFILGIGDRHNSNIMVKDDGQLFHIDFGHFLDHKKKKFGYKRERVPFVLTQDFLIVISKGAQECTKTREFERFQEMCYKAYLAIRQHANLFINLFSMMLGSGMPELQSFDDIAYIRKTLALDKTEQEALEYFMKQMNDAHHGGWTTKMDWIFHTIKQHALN
Chain of PI3K (P27986 whole entry partner): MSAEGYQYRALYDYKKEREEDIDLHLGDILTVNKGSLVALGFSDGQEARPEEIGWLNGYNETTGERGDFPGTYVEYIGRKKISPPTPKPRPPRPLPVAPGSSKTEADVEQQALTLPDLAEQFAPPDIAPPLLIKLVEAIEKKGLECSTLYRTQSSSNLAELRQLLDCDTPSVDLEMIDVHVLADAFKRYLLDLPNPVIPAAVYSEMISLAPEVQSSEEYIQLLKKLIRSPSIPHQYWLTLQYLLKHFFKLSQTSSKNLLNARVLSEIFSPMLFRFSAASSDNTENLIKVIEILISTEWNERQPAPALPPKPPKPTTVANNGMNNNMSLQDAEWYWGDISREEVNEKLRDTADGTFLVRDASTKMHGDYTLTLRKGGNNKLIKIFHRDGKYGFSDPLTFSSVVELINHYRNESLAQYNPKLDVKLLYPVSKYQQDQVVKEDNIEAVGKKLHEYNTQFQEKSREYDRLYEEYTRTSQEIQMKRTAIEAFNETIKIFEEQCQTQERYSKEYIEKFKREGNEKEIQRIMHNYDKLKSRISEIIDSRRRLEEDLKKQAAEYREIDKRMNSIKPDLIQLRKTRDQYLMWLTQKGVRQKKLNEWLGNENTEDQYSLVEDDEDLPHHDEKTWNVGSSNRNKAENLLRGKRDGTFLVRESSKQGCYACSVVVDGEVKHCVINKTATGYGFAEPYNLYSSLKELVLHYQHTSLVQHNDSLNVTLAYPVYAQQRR

The IC50 is the concentration at which inhibition is half-maximal. Regarding `COc1cccc(C(=O)Nc2ccc(-c3nc(N4CCOCC4)c4cnn(C5CCCCO5)c4n3)cc2)c1` (stereo not drawn) [Compound 273, 3-methoxy-N-{4-[4-morpholin-4-yl-1-(tetrahydro-2H-pyran-2-yl)-1H-pyrazolo[3,4-d]pyrimidin-6-yl]phenyl}benzamide], the IC50 in experiment [1] was 8.32 µM; in experiment [2] (Homo sapiens, 72 h), 60 µM; in experiment [3] (Homo sapiens, LNCaP, 72 h), 1.95 µM.

Turning to `O=C1CCCN1CCn1ncc2c(N3CCOCC3)nc(-c3cccc(O)c3)nc21` [Compound 164], the IC50 in experiment [1] came out at 0.23 µM; in experiment [2] (Homo sapiens, 72 h), 20 µM; in experiment [3] (Homo sapiens, LNCaP, 72 h) it was 5.7 µM.

Consider `O=C(Nc1ccc(-c2nc(N3CCOCC3)c3cnn(C4CCN(Cc5cccnc5)CC4)c3n2)cc1)NC1CC1` [Compound 649, 1-cyclopropyl-3-(4-{4-morpholin-4-yl-1-[1-(pyridin-3-ylmethyl)piperidin-4-yl]-1H-pyrazolo[3,4-d]pyrimidin-6-yl}phenyl)urea], for which the 50% inhibitory concentration (IC50) in experiment [1] is 0.438 µM; in experiment [2] it was 0.085 µM; in experiment [3], below 0.027 µM.

As for `CCNC(=O)Nc1ccc(-c2nc(N3CCOCC3)c3cnn(C4CCN(C(=O)OC)CC4)c3n2)cc1` [Compound 731, methyl 4-(6-{4-[(ethylcarbamoyl)amino]phenyl}-4-morpholin-4-yl-1H-pyrazolo[3,4-d]pyrimidin-1-yl)piperidine-1-carboxylate], the IC50 is 0.49 µM in experiment [1]; 0.07 µM in experiment [2] (Homo sapiens, 72 h); below 0.027 µM in experiment [3] (Homo sapiens, LNCaP, 72 h).

For `c1ccc(CCN2CCC(n3ncc4c(N5CCOCC5)nc(-c5ccc6[nH]ccc6c5)nc43)CC2)cc1` [Compound 239, 6-(1H-indol-5-yl)-4-morpholin-4-yl-1-[1-(2-phenylethyl)piperidin-4-yl]-1H-pyrazolo[3,4-d]pyrimidine], the half-inhibitory concentration (IC50) in experiment [1] came out at 3.09 µM; in experiment [2] (Homo sapiens, 72 h), 3.1 µM; in experiment [3] (Homo sapiens, LNCaP, 72 h) it was 0.78 µM.

Turning to `O=C(NCC(F)(F)F)Nc1ccc(-c2nc(N3CCOCC3)c3cnn(C4CCN(Cc5ccccc5)CC4)c3n2)cc1` [Compound 535, 1-{4-[1-(1-benzylpiperidin-4-yl)-4-morpholin-4-yl-1H-pyrazolo[3,4-d]pyrimidin-6-yl]phenyl}-3-(2,2,2-trifluoroethyl)urea], the concentration for half-maximal inhibition (IC50) in experiment [1] is 0.59 µM; in experiment [2] (Homo sapiens, 72 h), 1.3 µM; in experiment [3] (Homo sapiens, LNCaP, 72 h) it was 0.32 µM.

As for `CNC(=O)Nc1ccc(-c2nc(N3CCOCC3)c3cnn(C4CCN(C(=O)N(C)C)CC4)c3n2)cc1` [Compound 717, N,N-dimethyl-4-(6-{4-[(methylcarbamoyl)amino]phenyl}-4-morpholin-4-yl-1H-pyrazolo[3,4-d]pyrimidin-1-yl)piperidine-1-carboxamide], the half-inhibitory concentration (IC50) in experiment [1] was 0.209 µM; in experiment [2], 0.48 µM; in experiment [3], 0.2 µM.

As for `Oc1cccc(-c2nc(N3CCOCC3)c3cnn(C4CCN(Cc5ccc(Cl)cc5)CC4)c3n2)c1` [Compound 19], the half-maximal inhibitory concentration (IC50) was found to be 0.011 µM in experiment [1]; 1.7 µM in experiment [2] (Homo sapiens, 72 h); 0.45 µM in experiment [3] (Homo sapiens, LNCaP, 72 h).

For the compound `CNC(=O)Nc1ccc(-c2nc(N3CCOCC3)c3cnn(C4CCN(C(=O)c5ccc(OC)cc5)CC4)c3n2)cc1` [Compound 609, 1-(4-{1-[1-(4-methoxybenzoyl)piperidin-4-yl]-4-morpholin-4-yl-1H-pyrazolo[3,4-d]pyrimidin-6-yl}phenyl)-3-methylurea], the IC50 was found to be 0.054 µM in experiment [1]; 0.35 µM in experiment [2] (Homo sapiens, 72 h); 0.045 µM in experiment [3] (Homo sapiens, LNCaP, 72 h).

Take `O=C(NCCCO)Nc1ccc(-c2nc(N3CCOCC3)c3cnn(C4CCN(Cc5ccccc5)CC4)c3n2)cc1` [Example 269, 1-{4-[1-(1-benzylpiperidin-4-yl)-4-morpholin-4-yl-1H-pyrazolo[3,4-d]pyrimidin-6-yl]phenyl}-3-(3-hydroxypropyl)urea]: the IC50 in experiment [1] was determined as 0.364 µM; in experiment [2] (Homo sapiens, 72 h) it was 0.7 µM; in experiment [3] (Homo sapiens, LNCaP, 72 h), 0.08 µM.

As for `O=C(NCCO)Nc1ccc(-c2nc(N3CCOCC3)c3cnn(C4CCN(C(=O)c5ccccc5)CC4)c3n2)cc1` [Example 385, 1-{4-[1-(1-benzoylpiperidin-4-yl)-4-morpholin-4-yl-1H-pyrazolo[3,4-d]pyrimidin-6-yl]phenyl}-3-(2-hydroxyethyl)urea], the IC50 is 0.229 µM in experiment [1]; 0.7 µM in experiment [2] (Homo sapiens, 72 h); 0.8 µM in experiment [3] (Homo sapiens, LNCaP, 72 h).

For the compound `COc1ccc(CN2CCC(n3ncc4c(N5CCOCC5)nc(-c5ccc6[nH]ccc6c5)nc43)CC2)cn1` [Compound 176], the IC50 stood at 0.352 µM in experiment [1]; 2.6 µM in experiment [2] (Homo sapiens, 72 h); 1 µM in experiment [3] (Homo sapiens, LNCaP, 72 h).

With `O=C(NO)Nc1ccc(-c2nc(N3CCOCC3)c3cnn(C4CCN(Cc5ccccc5)CC4)c3n2)cc1` [Compound 555, 1-{4-[1-(1-benzylpiperidin-4-yl)-4-morpholin-4-yl-1H-pyrazolo[3,4-d]pyrimidin-6-yl]phenyl}-3-hydroxyurea], the half-inhibitory concentration (IC50) in experiment [1] is 0.198 µM; in experiment [2] (Homo sapiens, 72 h), 1.1 µM; in experiment [3] (Homo sapiens, LNCaP, 72 h) it was 0.1 µM.

For the compound `NC(=O)Nc1ccc(-c2nc(N3CCOCC3)c3cnn(C4CCN(C(=O)c5ccccc5)CC4)c3n2)cc1` [Example 382, 1-{4-[1-(1-benzoylpiperidin-4-yl)-4-morpholin-4-yl-1H-pyrazolo[3,4-d]pyrimidin-6-yl]phenyl}urea], the concentration for half-maximal inhibition (IC50) was 0.085 µM in experiment [1]; 0.2 µM in experiment [2] (Homo sapiens, 72 h); 0.17 µM in experiment [3] (Homo sapiens, LNCaP, 72 h).

Consider `CN(C)CC=CC(=O)N1CCC(n2ncc3c(N4CCOCC4)nc(-c4ccc5[nH]ccc5c4)nc32)CC1` [Compound 234, 4-{4-[6-(1H-indol-5-yl)-4-morpholin-4-yl-1H-pyrazolo[3,4-d]pyrimidin-1-yl]piperidin-1-yl}-N,N-dimethyl-4-oxobut-2-en-1-amine], for which the half-maximal inhibitory concentration (IC50) in experiment [1] was determined as 0.481 µM; in experiment [2] (Homo sapiens, 72 h), 2 µM; in experiment [3] (Homo sapiens, LNCaP, 72 h), 1 µM.

Regarding `COC(=O)N1CCC(n2ncc3c(N4CCOCC4)nc(-c4ccc(NC(=O)Nc5cccnc5)cc4)nc32)CC1` [Compound 737, methyl 4-(4-morpholin-4-yl-6-{4-[(pyridin-3-ylcarbamoyl)amino]phenyl}-1H-pyrazolo[3,4-d]pyrimidin-1-yl)piperidine-1-carboxylate], the IC50 in experiment [1] was 0.034 µM; in experiment [2] (Homo sapiens, 72 h) it was below 0.027 µM; in experiment [3] (Homo sapiens, LNCaP, 72 h) it was below 0.027 µM.

In the case of `CCOC(=O)N1CCC(n2ncc3c(N4CCOC[C@@H]4C)nc(-c4ccc(NC(=O)Nc5ccccc5)cc4)nc32)CC1` [Compound 896, ethyl 4-(4-[(3S)-3-methylmorpholin-4-yl]-6-{4-[(phenylcarbamoyl)amino]phenyl}-1H-pyrazolo[3,4-d]pyrimidin-1-yl)piperidine-1-carboxylate], the half-maximal inhibitory concentration (IC50) in experiment [1] came out at 0.019 µM; in experiment [2] (Homo sapiens, 72 h), 0.8 µM; in experiment [3] (Homo sapiens, LNCaP, 72 h) it was 0.15 µM.

`c1ccc(CN2CCC(n3ncc4c(N5CCOCC5)nc(-c5ccc(NCCN6CCOCC6)nc5)nc43)CC2)cc1` [Compound 193]: the half-maximal inhibitory concentration (IC50) in experiment [1] came to 8.25 µM; in experiment [2] (Homo sapiens, 72 h), 12 µM; in experiment [3] (Homo sapiens, LNCaP, 72 h), 10 µM.

As to `CNC(=O)Nc1ccc(-c2nc(N3CCOCC3)c3cnn(C4CCN(Cc5cccc(C)c5)CC4)c3n2)cc1` [Compound 674, 1-methyl-3-(4-{1-[1-(3-methylbenzyl)piperidin-4-yl]-4-morpholin-4-yl-1H-pyrazolo[3,4-d]pyrimidin-6-yl}phenyl)urea], the IC50 in experiment [1] came out at 0.042 µM; in experiment [2] it was 0.19 µM; in experiment [3], 0.052 µM.
